The values below come from ChEMBL document CHEMBL1154587, “Discovery of novel sphingosine kinase 1 inhibitors” (Bioorg Med Chem Lett, 2009).

Molecules are shown by their SMILES. Active and inactive are the calls of the source. The rule behind the calls is not given here.

Experiment [1] concerns the target T1, Sphingosine kinase 2 (Homo sapiens) (UniProt Q9NRA0).
T1 sequence (whole entry): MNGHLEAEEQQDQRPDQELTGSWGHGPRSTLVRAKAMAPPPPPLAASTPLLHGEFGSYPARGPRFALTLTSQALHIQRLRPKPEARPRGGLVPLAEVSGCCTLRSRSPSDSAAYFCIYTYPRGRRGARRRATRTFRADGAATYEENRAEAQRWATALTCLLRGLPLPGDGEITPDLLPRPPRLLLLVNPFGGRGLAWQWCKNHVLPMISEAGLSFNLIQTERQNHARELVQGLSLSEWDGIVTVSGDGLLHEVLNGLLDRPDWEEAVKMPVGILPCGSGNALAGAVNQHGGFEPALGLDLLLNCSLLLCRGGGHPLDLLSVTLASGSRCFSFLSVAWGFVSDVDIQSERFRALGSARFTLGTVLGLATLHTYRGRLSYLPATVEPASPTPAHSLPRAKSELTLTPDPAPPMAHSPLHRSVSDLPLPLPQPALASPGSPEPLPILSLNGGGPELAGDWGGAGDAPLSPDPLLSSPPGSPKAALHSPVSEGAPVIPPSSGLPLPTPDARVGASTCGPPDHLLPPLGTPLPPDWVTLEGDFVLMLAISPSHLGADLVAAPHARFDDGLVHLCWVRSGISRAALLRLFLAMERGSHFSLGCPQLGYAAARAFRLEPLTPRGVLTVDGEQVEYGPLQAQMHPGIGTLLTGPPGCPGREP
The experiment can be described thus: Inhibition of sphingosine kinase 2 at 10 uM.

The next experiment addresses Sphingosine kinase 1 (Homo sapiens, UniProt Q9NYA1). Description: Inhibition of human sphingosine kinase 1 by off chip mobility shift assay.

Chain of Sphingosine kinase 1 (Q9NYA1 whole entry): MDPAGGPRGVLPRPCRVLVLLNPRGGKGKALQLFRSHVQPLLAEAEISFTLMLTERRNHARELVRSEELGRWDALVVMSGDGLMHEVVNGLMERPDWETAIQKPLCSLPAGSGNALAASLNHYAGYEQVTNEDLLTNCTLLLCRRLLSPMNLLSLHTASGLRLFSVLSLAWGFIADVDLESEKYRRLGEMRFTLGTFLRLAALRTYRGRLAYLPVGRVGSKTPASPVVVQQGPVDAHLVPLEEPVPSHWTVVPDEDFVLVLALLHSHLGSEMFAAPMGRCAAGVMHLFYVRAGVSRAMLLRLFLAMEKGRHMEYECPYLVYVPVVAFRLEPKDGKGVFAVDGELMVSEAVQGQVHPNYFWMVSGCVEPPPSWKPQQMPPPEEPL

In the case of `CCCCCCCCc1ccc(NC[C@H]2NCC[C@@H]2O)cc1`, the inhibition entry in experiment [1] is “inactive”.
On the same count and under the same terms, for `CCCCCCCCc1ccc(NC(=O)C(N)CCO)cc1` (racemic) the value was “inactive”.
For orientation: IC50 means the concentration that gives 50% inhibition. Regarding `CCCCCCCCc1ccc(NC(=O)[C@H]2NC[C@@H](O)[C@@H]2O)cc1`, on Sphingosine kinase 1, the IC50 amounted to 8.3 µM. In addition, in experiment [1], the inhibition result is “inactive”.
Turning to `CCCCCCCCc1ccc(NC(=O)[C@@H](N)[C@H](C)O)cc1`, the inhibition result in experiment [1] is “inactive”.
Take `CCCCCCCCc1ccc(NC(=O)[C@H]2NCC[C@@H]2O)cc1`: the inhibition entry in experiment [1] was “inactive”.
For `CCCCCCCCc1ccc(NC(=O)C(N)CCCO)cc1` (racemic), the concentration for half-maximal inhibition (IC50) on Sphingosine kinase 1 is greater than 10 µM. In addition, the inhibition result in experiment [1] was “inactive”.
For the compound `CCCCCCCCc1ccc(CNC(=O)C(N)CO)cc1` (racemic), the 50% inhibitory concentration (IC50) on Sphingosine kinase 1 is greater than 10 µM. Further, in experiment [1], the inhibition result is “inactive”.
The matching figures for `CCCCCCCCc1ccc(NC(=O)[C@@H](N)COC)cc1`: greater than 10 µM and “inactive”.
On to `CCCCCCCCc1ccc(NC(=O)[C@@H](N)CO)cc1`, for which the inhibition result in experiment [1] is “inactive”.
Same read-out and setting: to `CCCCCCCCc1ccc(NC(=O)[C@@H](N)CCO)cc1` belongs “inactive”; to `CCCCCCCCc1ccc(NC[C@@H](N)CO)cc1`, “inactive”.
In the case of `CCCCCCCCc1ccc(NCC(N)CCO)cc1` (configuration not stated), the IC50 at Sphingosine kinase 1 is greater than 10 µM. Besides, in experiment [1], the inhibition entry was “inactive”.
On to `CCCCCCCCc1ccc(NC(=O)[C@H](N)[C@H](C)O)cc1`, for which, in experiment [1], the inhibition result is “inactive”.
The same measure, in the same setting: for `CCCCCCCCc1ccc(CNC(=O)C(N)CCO)cc1` (racemic) the value was “inactive”.
Same read-out and setting: for `CCCCCCCCc1ccc(NC(=O)[C@@H](N)CCCCO)cc1` the value was “inactive”.
Consider `CCCCCCCCc1ccc(NC(=O)C(C)(N)CO)cc1` (racemic), for which the half-inhibitory concentration (IC50) on Sphingosine kinase 1 was greater than 10 µM. Moreover, the inhibition result in experiment [1] is “inactive”.
With `CCCCCCCCc1ccc(NC(=O)[C@H](N)CO)cc1`, in experiment [1], the inhibition entry was “inactive”.
On the same count and under the same terms, to `CCCCCCCCCCCCC/C=C/[C@@H](O)[C@H](CO)N(C)C` belongs “inactive”.
As for `CCCCCCCCc1ccc(CCNC(=O)[C@H]2NCC[C@@H]2O)cc1`, the IC50 at Sphingosine kinase 1 is 6.2 µM. Moreover, the inhibition result in experiment [1] was “inactive”.
As to `CCCCCCCCc1ccc(NC(=O)[C@@H](N)[C@@H](C)O)cc1`, the half-maximal inhibitory concentration (IC50) at Sphingosine kinase 1 amounted to 0.65 µM. In experiment [1], the inhibition result was “inactive”.
In the case of `CCCCCCCCc1ccc(CNC(=O)[C@H]2NCC[C@@H]2O)cc1`, the half-inhibitory concentration (IC50) on Sphingosine kinase 1 was 0.43 µM. In addition, the inhibition result in experiment [1] is “inactive”.
The matching figures for `CCCCCCCCc1ccc(NC(=O)C(N)C(C)(C)O)cc1` (racemic): 2.1 µM and “inactive”.
In the case of `CCCCCCCCc1ccc(NC(=O)[C@@H](N)[C@@H](O)CC)cc1` (racemic), the inhibition entry in experiment [1] is “inactive”.
In the case of `CCCCCCCCc1ccc(NC(=O)[C@H](CO)NC)cc1`, in experiment [1], the inhibition entry is “inactive”.
Same read-out and setting: to `CCCCCCCCc1ccc(NC(=O)[C@H]2NCC[C@H]2O)cc1` belongs “inactive”; to `CCCCCCCCc1ccc(NC(=O)[C@H](N)[C@@H](C)O)cc1`, “inactive”.
For `CCCCCCCCc1ccc(NC(=O)[C@H](N)CCO)cc1`, the inhibition result in experiment [1] is “inactive”.
